Source: ChEMBL document CHEMBL1201862, “PubChem BioAssay data set” (2004)
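These data come from cells grown in 96-well plates and exposed to compound for 48 hours at five concentrations. GI50 = concentration required for 50% inhibition of growth.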 Activity calls are given as the source filed them. No stated cut-off is given here; in the data, active = GI50 up to about 1.1 µM and inactive = higher.

Experiments:
Test in all cases: NCI anticancer screen, dose series, 48 h
[1] = test system: COLO 205
[2] = test system: TK-10
[3] = test system: UO-31
[4] = test system: SNB-19
[5] = test system: NCI-H460
[6] = test system: 786-0
[7] = test system: T47D
[8] = test system: HCT-116
[9] = test system: NCI-H23
[10] = test system: MOLT-4
[11] = test system: IGROV-1
[12] = test system: HOP-62
[13] = test system: MCF7
[14] = test system: M14
[15] = test system: SF-295
[16] = test system: NCI/ADR-RES
[17] = test system: SK-MEL-2
[18] = test system: OVCAR-4
[19] = test system: U-251
[20] = test system: HT-29
[21] = test system: NCI-H522
[22] = test system: CCRF-CEM
[23] = test system: PC-3
[24] = test system: SF-268
[25] = test system: OVCAR-3
[26] = test system: DU-145
[27] = test system: OVCAR-5
[28] = test system: A498
[29] = test system: MDA-N
[30] = test system: LOX IMVI
[31] = test system: SK-OV-3
[32] = test system: NCI-H226
[33] = test system: K562
[34] = test system: Hs-578T
[35] = test system: SK-MEL-28
[36] = test system: ACHN
[37] = test system: RXF 393
[38] = test system: SNB-75
[39] = test system: CAKI-1
[40] = test system: SN12C
[41] = test system: SF-539
[42] = test system: MDA-MB-435
[43] = test system: EKVX
[44] = test system: HCC 2998
[45] = test system: HOP-92
[46] = test system: SK-MEL-5
[47] = test system: MDA-MB-231
[48] = test system: KM12
[49] = test system: UACC-62
[50] = test system: HL-60
[51] = test system: SW-620
[52] = test system: BT-549
[53] = test system: HCT-15
[54] = test system: RPMI-8226
[55] = test system: A549
[56] = test system: OVCAR-8
[57] = test system: SR
[58] = test system: UACC-257
[59] = test system: Malme-3M

## COc1cc2c(/C=C3/C(=O)N(C)c4ccccc43)c(Cl)[nH]c2cc1C
[1]
  GI50: 216 nM (active)
[2]
  GI50: 284 nM (active)
[3]
  GI50: 2280 nM (inactive)
[4]
  GI50: 253 nM (active)
[5]
  GI50: 295 nM (active)
[6]
  GI50: 300 nM (active)
[7]
  GI50: 1460 nM (inactive)
[8]
  GI50: 233 nM (active)
[9]
  GI50: 203 nM (active)
[10]
  GI50: 282 nM (active)
[11]
  GI50: 167 nM (active)
[12]
  GI50: 286 nM (active)
[13]
  GI50: 89.5 nM (active)
[14]
  GI50: 195 nM (active)
[15]
  GI50: 96.4 nM (active)
[16]
  GI50: 170 nM (active)
[17]
  GI50: 325 nM (active)
[18]
  GI50: 90.6 nM (active)
[19]
  GI50: 117 nM (active)
[20]
  GI50: 328 nM (active)
[21]
  GI50: 183 nM (active)
[22]
  GI50: 303 nM (active)
[23]
  GI50: 290 nM (active)
[24]
  GI50: 207 nM (active)
[25]
  GI50: 116 nM (active)
[26]
  GI50: 246 nM (active)
[27]
  GI50: 581 nM (active)
[28]
  GI50: 3190 nM (inactive)
[29]
  GI50: 35.2 nM (active)
[30]
  GI50: 300 nM (active)
[31]
  GI50: 184 nM (active)
[32]
  GI50: 449 nM (active)
[33]
  GI50: 96.6 nM (active)
[34]
  GI50: 226 nM (active)
[35]
  GI50: 8380 nM (inactive)
[36]
  GI50: 510 nM (active)
[37]
  GI50: 746 nM (active)
[38]
  GI50: 321 nM (active)
[39]
  GI50: 509 nM (active)
[40]
  GI50: 471 nM (active)
[41]
  GI50: 24.4 nM (active)
[42]
  GI50: 27.7 nM (active)
[43]
  GI50: 641 nM (active)
[44]
  GI50: 101 nM (active)
[45]
  GI50: 1810 nM (inactive)
[46]
  GI50: 185 nM (active)
[47]
  GI50: 360 nM (active)
[48]
  GI50: 132 nM (active)
[49]
  GI50: 179 nM (active)
[50]
  GI50: 69 nM (active)
[51]
  GI50: 330 nM (active)
[52]
  GI50: 321 nM (active)
[53]
  GI50: 130 nM
[54]
  GI50: 249 nM (active)
[55]
  GI50: 361 nM (active)
[56]
  GI50: 324 nM (active)
[57]
  GI50: 274 nM (active)
[58]
  GI50: 169 nM (active)

## CCCCCCCCCCCC/C=C\CC[C@@H](O)[C@H](O)CC[C@H](O)[C@@H]1CC[C@@H](CCCCCCCC2=C[C@H](C)OC2=O)O1 [GIGANTRIONENIN]
[1]
  GI50: 2980 nM (inactive)
[2]
  GI50: 2170 nM (inactive)
[3]
  GI50: 1710 nM (inactive)
[4]
  GI50: 1830 nM (inactive)
[5]
  GI50: 2910 nM (inactive)
[6]
  GI50: 6210 nM (inactive)
[7]
  GI50: 3430 nM (inactive)
[8]
  GI50: 1870 nM (inactive)
[9]
  GI50: 110 nM (active)
[10]
  GI50: 2170 nM (inactive)
[11]
  GI50: 3180 nM (inactive)
[12]
  GI50: 4100 nM (inactive)
[13]
  GI50: 2280 nM (inactive)
[14]
  GI50: 13900 nM (inactive)
[15]
  GI50: 1930 nM (inactive)
[16]
  GI50: 1240 nM (inactive)
[17]
  GI50: 2240 nM (inactive)
[18]
  GI50: 10800 nM (inactive)
[19]
  GI50: 3080 nM (inactive)
[20]
  GI50: 2310 nM (inactive)
[21]
  GI50: 7450 nM (inactive)
[22]
  GI50: 1440 nM (inactive)
[23]
  GI50: 2750 nM (inactive)
[24]
  GI50: 4420 nM (inactive)
[25]
  GI50: 1990 nM (inactive)
[26]
  GI50: 3660 nM (inactive)
[27]
  GI50: 18500 nM (inactive)
[28]
  GI50: 5560 nM (inactive)
[29]
  GI50: 3910 nM (inactive)
[30]
  GI50: 1310 nM (inactive)
[32]
  GI50: 1480 nM (inactive)
[33]
  GI50: 1150 nM (inactive)
[34]
  GI50: 3030 nM (inactive)
[35]
  GI50: 2940 nM (inactive)
[36]
  GI50: 1170 nM (inactive)
[37]
  GI50: 19400 nM (inactive)
[38]
  GI50: 7660 nM (inactive)
[39]
  GI50: 15800 nM (inactive)
[40]
  GI50: 5050 nM (inactive)
[41]
  GI50: > 10000 nM (inactive)
[42]
  GI50: 883 nM (active)
[43]
  GI50: 2970 nM (inactive)
[44]
  GI50: 17300 nM (inactive)
[45]
  GI50: 2470 nM (inactive)
[46]
  GI50: 1260 nM (inactive)
[47]
  GI50: 7180 nM (inactive)
[48]
  GI50: 3920 nM (inactive)
[49]
  GI50: 1350 nM (inactive)
[59]
  GI50: 13700 nM (inactive)
[50]
  GI50: 2170 nM (inactive)
[51]
  GI50: 3350 nM (inactive)
[52]
  GI50: 8.19 nM (active)
[53]
  GI50: 3850 nM
[54]
  GI50: 2650 nM (inactive)
[55]
  GI50: 1730 nM (inactive)
[56]
  GI50: 2640 nM (inactive)
[57]
  GI50: 1410 nM (inactive)
[58]
  GI50: 54.6 nM (active)
